{
  "source": "patent USRE30149E",
  "about": "“Preparation of antifibrinolytically active isomer of 4-aminomethylcyclohexane carboxylic acid” (AB Kabi, priority 1963, dated 1979)",
  "key": {"[1]": {"target": "streptokinase-induced fibrinolysis (fibrinogen, plasminogen, thrombin system)", "test": "in vitro antifibrinolytic activity, 50% inhibition of streptokinase-induced fibrinolysis", "type": "biochemical", "details": "for Actual amount of compound for 50% inhibition of 6 units of streptokinase: fibrinogen, plasminogen, thrombin plus 6 units of streptokinase", "description": "Antifibrinolytic activity quantitative assay was conducted by a technique utilizing the procedures described by Christensen, L. E. in J. clin. Invest., volume 28 (1949), page 163, and Wasserman, A. E., et al. in J. Lab. clin. Med., volume 4 (1953), page 812. […] The system consists of fibrinogen, plasminogen, and thrombin, to which is added 6 units of streptokinase which produces a lytic effect. The 50% inhibition studied corresponds to a lytic activity of 3 units of streptokinase. […] The time necessary for the formed plasmin to dissolve a standard fibrin coagulum is determined.\nThe following table furnishes the data on the in vitro antifibrinolytic activity of the several compounds considered in this specification, expressed as 50% inhibition of 6 units of streptokinase: […]"}, "[2]": {"details": "animal organism, i.e. the subject being treated; cited from earlier work"}, "[3]": {"test_system": "fibrinolysis", "details": "cited from earlier work"}},
  "data": [
    {"smiles": "NCC1CCC(C(=O)O)CC1", "note": "(single isomer, unassigned; isomer 4) [Isomeric AMCHA, comprising 10% active isomer, 4-aminomethyl-cyclohexane carboxylic acid]", "values": [
      {"measurement": "Actual amount of compound for 50% inhibition of 6 units of streptokinase", "setting": "[1]; in vitro", "value": "2 γ"}
    ]},
    {"smiles": "NCCCCCC(=O)O", "note": "[EACA, epsilon-aminocaproicacid]", "values": [
      {"measurement": "excretion", "setting": "[2]", "value": "so rapidly excreted"},
      {"measurement": "Relative activity", "setting": "[1]; in vitro, 50% inhibition of 6 units of streptokinase, relative to EACA = 1", "value": 1},
      {"measurement": "Actual amount of compound for 50% inhibition of 6 units of streptokinase", "setting": "[1]; in vitro", "value": "4 γ"},
      {"measurement": "antifibrinolytic activity in clinical use", "setting": "[3]", "value": "acceptable degree of antifibrinolytic activity"}
    ]},
    {"smiles": "NCC1CCC(C(=O)O)CC1", "note": "(single isomer, unassigned; isomer 4) [Inactive-AMCHA isomer, 4-aminomethyl-cyclohexane carboxylic acid]", "values": [
      {"measurement": "antifibrinolytic activity", "setting": "[1]; evaluation of the two separate AMCHA isomers", "value": "practically devoid of any antifibrinolytic activity"},
      {"measurement": "Actual amount of compound for 50% inhibition of 6 units of streptokinase", "setting": "[1]; in vitro", "value": "30 γ"}
    ]},
    {"smiles": "NCC1CCC(C(=O)O)CC1", "note": "(single isomer, unassigned; isomer 4) [Active-AMCHA isomer, 4-aminomethyl-cyclohexane carboxylic acid]", "values": [
      {"measurement": "Actual amount of compound for 50% inhibition of 6 units of streptokinase", "setting": "[1]; in vitro", "value": "0.2 γ"}
    ]}
  ]
}
